Assay: Human HepG2 cell viability assay in 384 well format
Format: toxicity, cell-based
Parameters: dose 125 nL, time 70.5 hour; concentration not given beside the values
Details: HepG2 cells, read-out: Inhibition

| Structure (SMILES) | cytotoxicity at 70.5 h |
| --- | --- |
| O=C(O)C1(O)CCN(c2ccnc3c(C(F)(F)F)cccc23)CC1 | -25.6% |
| OC1(CNCCc2csc(-c3ncccn3)n2)CCNC1 (stereo not given) | -14.5% |
| Nc1cc(O)nc(CCNC(=O)CC[C@@H]2CCCN3CCCC[C@H]23)n1 | -4.87% |
| CCc1nc(N2CCCC(CCCOC)(C(=O)O)C2)ncc1C (stereo not given) | -10.1% |
| CC(C)c1ccn(C2(C(=O)O)CCN(c3ccncc3F)CC2)n1 | -4.07% |
| CC(C)SCCNC(=O)c1cccc2ccnn12 | -9.35% |
| Cc1[nH]ccc1C(=O)N[C@H]1CN(S(C)(=O)=O)C[C@@H]1C1CC1 | -5.26% |
| O=C1CCC2(CCN(Cc3ncccn3)CC2)CN1CCCO | -8.14% |
| CCNc1ncc(C(=O)NCCCc2ccncc2)cn1 | -3.04% |
| N#Cc1cccc(NC2CC(=O)N(C3Cc4ccccc4C3)C2)n1 (stereo not given) | 19% |
| Cc1cnccc1CN(C)C1CCN(c2ncnc3[nH]cnc23)CC1 | -6.65% |
| CC(=O)N1CCCC(C(=O)N2CCN(c3cnn(C)c(=O)c3)CC2)C1 (stereo not given) | 9.66% |
| COCCN1CCC(CN(C)c2ncnc3c2c(C)nn3C)C1 (stereo not given) | 6.13% |
| O=C(Nc1nncs1)N1CCCN(C2CCCCC2)CC1 | -12.6% |
| CN1CCN(c2cc(CCNC(=O)C3CCC3)nc(C3CC3)n2)CC1 | -6.65% |
| Cn1nc(C2CN(C(=O)c3cscn3)C2)c2nccnc21 | -3.87% |
| COc1cccc(-c2nccnc2C2CCN(C(C)=O)CC2)c1 | -8.61% |
| Cc1cncc(C2CCCN(C(=O)c3scnc3C)C2)n1 (stereo not given) | -3.5% |
| CN(C(=O)c1ccccn1)c1nc2c(s1)CCc1c-2cnn1C | 8.04% |
| Cc1cccc(CN2CCc3c(nc(N4CCCCC4C)[nH]c3=O)C2)n1 (stereo not given) | -4.07% |
| Cc1cccc(CN2CCc3c(nc(N4CCC(C)CC4)[nH]c3=O)C2)n1 | -9.37% |
| CC1CCCCN1c1nc2c(c(=O)[nH]1)CCN(Cc1cccnc1)C2 (stereo not given) | -3.39% |
| CCC(=O)N1CCc2nc3cc(OC)c(OC)cc3c(=O)n2CC1 | 29.2% |

| Structure (SMILES) | cytotoxicity at 70.5 h |
| --- | --- |
| CCN1CCN(c2ncc(-c3cc(C)no3)c(-c3ccc(C)s3)n2)CC1 | -27.4% |
| O=C(O)CCc1cccc(C2CCCN2Cc2ccc(F)c(F)c2)n1 (stereo not given) | -6.64% |
| Cc1ncccc1Oc1nccnc1C1CCN(C(C)C)CC1 | -2.72% |
| Cn1nc(C2CCCN(C(=O)CO)C2)cc1O (stereo not given) | 19.8% |
| CC(=O)N1CCNCC1c1cccc(C(=O)N(C)C)c1 (stereo not given) | -8.36% |
| O=C(c1n[nH]c(=O)c2ccccc12)N1CCCCC1c1ccn[nH]1 (stereo not given) | -8.63% |
| CNC(=O)C1(c2cnccn2)CCCN1C(=O)c1ccn(C)n1 (stereo not given) | -1.48% |
| CC(C)C(=O)N1CCN(Cc2cc(-c3ccncc3)nn2C)CC1 | 31.9% |
| CCC(=O)N1CCN(Cc2cc(-c3ccncc3)nn2C)CC1 | 5.2% |
| CN1CCCC[C@@H]2[C@H]1[C@@H](c1ccccc1)CCN2C(=O)c1cnccn1 | 1.76% |
| Cc1nc(O)c2nnn(C[C@H]3CCCN3C(=O)c3cccc(F)c3)c2n1 | -7.83% |
| CN1CCCC(c2n[nH]c3ncccc23)C1 (stereo not given) | -11.4% |
| CCc1c(C)nc2cc(C3CCN(Cc4ccccc4F)C3)nn2c1O (stereo not given) | -2.56% |
| O=C(c1ccccn1)N1CCc2nc(-c3cnccn3)nc(O)c2C1 | -3.62% |
| O=C(Cc1ccccn1)N1CCc2nc(-c3cnccn3)nc(O)c2C1 | -4.01% |
| COc1ccc(-c2cc(C3CCCCCN3S(=O)(=O)N(C)C)on2)cc1 (stereo not given) | 8.12% |
| Cc1cc(O)nc(C2CCCN(Cc3ccncc3)C2)n1 (stereo not given) | -0.0773% |
| c1cnc2c(C3CCN(Cc4ccsc4)CC3)n[nH]c2n1 | 42.8% |
| O=C1NCC2(CCCN(CCc3ccccc3)C2)Oc2ccccc21 (stereo not given) | 21.7% |
| Cc1c(C2CCCN(C(=O)Cc3ccccn3)C2)n2c(nc1=O)CCC2 (stereo not given) | 0.807% |
| O=S(=O)(N1CCCCC1)N1CCc2nc(C3CCNCC3)ncc2C1 | -13.5% |
| Cc1cc(C)nc(Nc2cccc(C3CCCN(C)C3)n2)n1 (stereo not given) | 0.625% |
